Test results from BindingDB's records for doi:10.1016/s0960-894x(98)00240-6 (Boehringer Ingelheim (Canada), 1999).

Test: Inhibitory activity against porcine pancreatic elastase(PPE)

Compound | IC50 [µM]
C[C@@H](NC(=O)N1C(=O)CC1SCc1cccnc1)c1ccccc1 (stereo partly drawn) [2-Oxo-4-(pyridin-3-ylmethylsulfanyl)-azetidine-1-carboxylic acid ((R)-1-phenyl-ethyl)-amide] | 65
O=C1CC(SCc2ccccn2)N1C(=O)N[C@H](CO)c1ccccc1 (stereo partly drawn) [2-Oxo-4-(pyridin-2-ylmethylsulfanyl)-azetidine-1-carboxylic acid ((S)-2-hydroxy-1-phenyl-ethyl)-amide] | > 75

Results, then the compound that gave them:

IC50 [µM] | Compound
0.73 | CC[C@@H](NC(=O)N1C(=O)[C@@H](C)[C@@H]1SCc1ccccn1)c1ccccc1 [(3R,4S)-3-Methyl-2-oxo-4-(pyridin-2-ylmethylsulfanyl)-azetidine-1-carboxylic acid ((R)-1-phenyl-propyl)-amide]
> 75 | CC(C)C[C@@H](COC1CC(=O)N1C(=O)NCc1ccccc1)NC(=O)[C@@H](NC(=O)OC(C)(C)C)C(C)(C)C (stereo partly drawn) [{(S)-1-[(S)-1-(1-Benzylcarbamoyl-4-oxo-azetidin-2-yloxymethyl)-3-methyl-butylcarbamoyl]-2,2-dimethyl-propyl}-carbamic acid tert-butyl ester]
21 | C[C@@H](NC(=O)N1C(=O)CC1SCc1ccncc1)c1ccccc1 (stereo partly drawn) [2-Oxo-4-(pyridin-4-ylmethylsulfanyl)-azetidine-1-carboxylic acid ((R)-1-phenyl-ethyl)-amide]
